Measurements reported in patent US20260250289A1, “BICYCLIC HETEROCYCLES AND THEIR USE AS WRN INHIBITORS” (Novartis AG, priority 2022, published 2026).
Read-outs that look alike come from different tables or passages of the source.

Tests used:
[1] = target: T1, WRN helicase (aa N517-P1238) (Homo sapiens, UniProt Q14191); experiment: WRN ATPase assay (DNA dependent ATP hydrolysis, ADP-Glo); format: biochemical; conditions: 3 hours pre-incubation, 300 micromolar ATP, FLAP26 DNA; geometric mean of at least 2
T1 construct: The core helicase motif of the WRN protein (aa N517-P1238) was produced for this assay; His (N); ZZ (N); 3C protease cleavage site (N); made in house; host or cells: Sf21 insect cells (baculovirus; virus and BIICs made in SF9)
T1 sequence (Q14191 517-1238): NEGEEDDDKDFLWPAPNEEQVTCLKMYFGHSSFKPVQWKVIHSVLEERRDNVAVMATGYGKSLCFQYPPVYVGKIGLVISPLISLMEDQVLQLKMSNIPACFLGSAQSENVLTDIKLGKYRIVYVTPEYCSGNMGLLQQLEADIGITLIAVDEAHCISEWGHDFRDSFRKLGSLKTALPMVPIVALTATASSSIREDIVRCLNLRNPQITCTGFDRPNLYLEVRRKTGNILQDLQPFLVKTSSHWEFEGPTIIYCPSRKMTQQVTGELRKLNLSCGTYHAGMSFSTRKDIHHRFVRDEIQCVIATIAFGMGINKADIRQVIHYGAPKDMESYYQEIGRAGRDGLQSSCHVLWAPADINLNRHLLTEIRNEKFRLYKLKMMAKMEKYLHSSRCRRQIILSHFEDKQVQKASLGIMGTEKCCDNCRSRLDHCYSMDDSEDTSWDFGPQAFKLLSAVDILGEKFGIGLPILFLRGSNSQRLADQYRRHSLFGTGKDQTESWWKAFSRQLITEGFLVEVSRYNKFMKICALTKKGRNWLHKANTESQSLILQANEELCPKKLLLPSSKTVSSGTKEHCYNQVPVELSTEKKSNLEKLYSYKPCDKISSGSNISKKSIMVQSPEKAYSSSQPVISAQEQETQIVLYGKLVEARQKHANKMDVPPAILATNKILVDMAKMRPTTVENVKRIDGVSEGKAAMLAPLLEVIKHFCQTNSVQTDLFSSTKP
How it was run: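 DNA-dependent ATP hydrolysis detected as ADP by ADP-Glo luminescence, using 300 μM ATP, 0.2 nM FLAP26 substrate and 10 nM WRN aa N517-P1238 (Tris pH 7.5 buffer, 2 mM MgCl2, 50 mM NaCl). IC50s fitted from normalized duplicate half-log dilutions; reported as geometric means of at least 2 replicates.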

DLD1-WRN-KO cells = experiment: Proliferation assay DLD1-WRN-KO (CellTiterGlo, off-target effects); format: cell-based; conditions: 96 hours, geometric mean of at least 2
How it was run: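 DLD1 cells with CRISPR knockout of WRN were exposed overnight-seeded to eight 3-fold compound dilutions (0.1% DMSO) for 96 h at 37 °C. Viability was read as ATP by CellTiterGlo luminescence against a day-0 plate, giving GI50 and residual viability at top concentration.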

SW48 cells = experiment: Proliferation assay SW48 (CellTiterGlo); format: cell-based; conditions: SW48 colon carcinoma cells, 96 hours, CellTiterGlo, geometric mean of at least 2, read-out: Proliferation Assay SW48 GI50
How it was run: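 SW48 cells, 2,000/well, treated after overnight seeding with eight 3-fold compound dilutions (0.1% DMSO) for 96 hours at 37° C. Viability read as ATP by CellTiterGlo luminescence, normalised to a day-0 plate and vehicle to give % growth; GI50 is geometric mean of ≥2 independent replicates.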

`CC(=O)N1CCN(c2c(C)n(CC(=O)Nc3ccc(C(F)(F)F)cc3)c3nc(C4=CCN(C(=O)OC(C)(C)C)CC4)nn3c2=O)CC1` [Example 105, tert-butyl 4-(6-(4-acetylpiperazin-1-yl)-5-methyl-7-oxo-4-(2-oxo-2-((4-(trifluoromethyl)phenyl)amino)ethyl)-4,7-dihydro-[1,2,4]triazolo[1,5-a]pyrimidin-2-yl)-3,6-dihydropyridine-1(2H)-carboxylate] was tested, and the IC50 [1] was 100 nM, the GI50 (DLD1-WRN-KO cells) was 5000 nM and the GI50 (SW48 cells; Homo sapiens, SW48, 96 h) was 800 nM.
In the case of `CC(=O)N1CCN(c2c(C)n(CC(=O)Nc3ccc(C(F)(F)F)cc3)c3nc(C4=CCOCC4)nn3c2=O)CC1` [Example 69, 2-(6-(4-acetylpiperazin-1-yl)-2-(3,6-dihydro-2H-pyran-4-yl)-5-methyl-7-oxo-[1,2,4]triazolo[1,5-a]pyrimidin-4(7H)-yl)-N-(4-(trifluoromethyl)phenyl)acetamide], the IC50 [1] is reported as 500 nM, the GI50 (DLD1-WRN-KO cells) is reported as over 10000 nM and the GI50 (SW48 cells; Homo sapiens, SW48, 96 h) is reported as 4000 nM.
`CCc1c(N2CCN(C(C)=O)CC2)c(=O)n2nc(C3=CCOCC3)nc2n1CC(=O)Nc1ccc(C(F)(F)F)cc1F` [Example 88, 2-(6-(4-acetylpiperazin-1-yl)-2-(3,6-dihydro-2H-pyran-4-yl)-5-ethyl-7-oxo-[1,2,4]triazolo[1,5-a]pyrimidin-4(7H)-yl)-N-(2-fluoro-4-(trifluoromethyl)phenyl)acetamide] showed an IC50 [1] of 500 nM, a GI50 (DLD1-WRN-KO cells) of over 10000 nM and a GI50 (SW48 cells; Homo sapiens, SW48, 96 h) of 3000 nM.
Work on `CCc1c(N2CCN(C(=O)c3nsnc3O)CC2)c(=O)n2nc(C3=CCOCC3)nc2n1CC(=O)Nc1ccc(C(F)(F)F)cc1Cl` [Example 66, N-(2-chloro-4-(trifluoromethyl)phenyl)-2-(2-(3,6-dihydro-2H-pyran-4-yl)-5-ethyl-6-(4-(4-hydroxy-1,2,5-thiadiazole-3-carbonyl)piperazin-1-yl)-7-oxo-[1,2,4]triazolo[1,5-a]pyrimidin-4(7H)-yl)acetamide] yielded an IC50 [1] of 30 nM, a GI50 (DLD1-WRN-KO cells) of over 10000 nM and a GI50 (SW48 cells; Homo sapiens, SW48, 96 h) of 300 nM.
For `CC(=O)N1CCN(c2c(C)n(CC(=O)Nc3ccc(C(F)(F)F)cc3C)c3nc(C4=CCOCC4)nn3c2=O)CC1` [Example 64, 2-(6-(4-acetylpiperazin-1-yl)-2-(3,6-dihydro-2H-pyran-4-yl)-5-methyl-7-oxo-[1,2,4]triazolo[1,5-a]pyrimidin-4(7H)-yl)-N-(2-methyl-4-(trifluoromethyl)phenyl)acetamide], the IC50 [1] was 900 nM, the GI50 (DLD1-WRN-KO cells) was over 10000 nM and the GI50 (SW48 cells; Homo sapiens, SW48, 96 h) was 4000 nM.
With `CC(=O)N1CCN(c2c(C)n(CC(=O)Nc3ccc(C(F)(F)F)cc3)c3nc(-c4ccccc4)nn3c2=O)CC1` [Example 130, 2-(6-(4-acetylpiperazin-1-yl)-5-methyl-7-oxo-2-phenyl-[1,2,4]triazolo[1,5-a]pyrimidin-4(7H)-yl)-N-(4-(trifluoromethyl)phenyl)acetamide] the IC50 [1] was 900 nM, the GI50 (DLD1-WRN-KO cells) was 7000 nM and the GI50 (SW48 cells; Homo sapiens, SW48, 96 h) was 2000 nM.
Work on `Cc1c(N2CCN(C(=O)c3ccncc3O)CC2)c(=O)n2nc(C3=CCOCC3)nc2n1CC(=O)Nc1ccc(C(F)(F)F)cc1` [Example 36, 2-(2-(3,6-dihydro-2H-pyran-4-yl)-6-(4-(3-hydroxyisonicotinoyl)piperazin-1-yl)-5-methyl-7-oxo-[1,2,4]triazolo[1,5-a]pyrimidin-4(7H)-yl)-N-(4-(trifluoromethyl)phenyl)acetamide] yielded an IC50 [1] of 100 nM, a GI50 (DLD1-WRN-KO cells) of over 10000 nM and a GI50 (SW48 cells; Homo sapiens, SW48, 96 h) of over 10000 nM.
With `CC(=O)N1CCN(c2c(C)n(CC(=O)Nc3ccc(C(F)(F)F)cc3)c3nc(-c4cccnc4)nn3c2=O)CC1` [Example 106, 2-(6-(4-acetylpiperazin-1-yl)-5-methyl-7-oxo-2-(pyridin-3-yl)-[1,2,4]triazolo[1,5-a]pyrimidin-4(7H)-yl)-N-(4-(trifluoromethyl)phenyl)acetamide] the IC50 [1] was 100 nM, the GI50 (DLD1-WRN-KO cells) was over 10000 nM and the GI50 (SW48 cells; Homo sapiens, SW48, 96 h) was 200 nM.
With `Cc1cc(C(=O)N2CCN(c3c(C)n(CC(=O)Nc4ccc(C(F)(F)F)cc4)c4nc(C5=CCOCC5)nn4c3=O)CC2)c(O)cn1` [Example 26, 2-(2-(3,6-dihydro-2H-pyran-4-yl)-6-(4-(5-hydroxy-2-methylisonicotinoyl)piperazin-1-yl)-5-methyl-7-oxo-[1,2,4]triazolo[1,5-a]pyrimidin-4(7H)-yl)-N-(4-(trifluoromethyl)phenyl)acetamide] the IC50 [1] was 300 nM, the GI50 (DLD1-WRN-KO cells) was over 10000 nM and the GI50 (SW48 cells; Homo sapiens, SW48, 96 h) was over 10000 nM.
`CCc1ccc(NC(=O)Cn2c(C)c(N3CCN(C(C)=O)CC3)c(=O)n3nc(C4=CCOCC4)nc23)cc1C(F)(F)F` [Example 72, 2-(6-(4-acetylpiperazin-1-yl)-2-(3,6-dihydro-2H-pyran-4-yl)-5-methyl-7-oxo-[1,2,4]triazolo[1,5-a]pyrimidin-4(7H)-yl)-N-(4-ethyl-3-(trifluoromethyl)phenyl)acetamide] gave an IC50 [1] of 100 nM, a GI50 (DLD1-WRN-KO cells) of over 10000 nM and a GI50 (SW48 cells; Homo sapiens, SW48, 96 h) of 2000 nM.
`Cc1c(N2CCN(C(=O)c3ccnc(F)c3O)CC2)c(=O)n2nc(C3=CCOCC3)nc2n1CC(=O)Nc1ccc(C(F)(F)F)cc1` [Example 19, 2-(2-(3,6-dihydro-2H-pyran-4-yl)-6-(4-(2-fluoro-3-hydroxyisonicotinoyl)piperazin-1-yl)-5-methyl-7-oxo-[1,2,4]triazolo[1,5-a]pyrimidin-4(7H)-yl)-N-(4-(trifluoromethyl)phenyl)acetamide] showed an IC50 [1] of 60 nM, a GI50 (DLD1-WRN-KO cells) of over 10000 nM and a GI50 (SW48 cells; Homo sapiens, SW48, 96 h) of over 10000 nM.
With `Cc1c(N2CCN(C(=O)c3ccc(F)c(F)c3O)CC2)c(=O)n2nc(N3CCOCC3)nc2n1CC(=O)Nc1ccc(C(F)(F)F)cc1` [Example 150, 2-(6-(4-(3,4-difluoro-2-hydroxybenzoyl)piperazin-1-yl)-5-methyl-2-morpholino-7-oxo-[1,2,4]triazolo[1,5-a]pyrimidin-4(7H)-yl)-N-(4-(trifluoromethyl)phenyl)acetamide] the IC50 [1] was 90 nM, the GI50 (DLD1-WRN-KO cells) was over 10000 nM and the GI50 (SW48 cells; Homo sapiens, SW48, 96 h) was 2000 nM.
`Cc1c(N2CCN(C(=O)c3ccc(F)c(F)c3O)CC2)c(=O)n2nc(C3=CCOCC3)nc2n1CC(=O)Nc1ccc(C(F)(F)F)cc1` [Example 16, 2-(6-(4-(3,4-difluoro-2-hydroxybenzoyl)piperazin-1-yl)-2-(3,6-dihydro-2H-pyran-4-yl)-5-methyl-7-oxo-[1,2,4]triazolo[1,5-a]pyrimidin-4(7H)-yl)-N-(4-(trifluoromethyl)phenyl)acetamide] gave an IC50 [1] of 50 nM, a GI50 (DLD1-WRN-KO cells) of over 10000 nM and a GI50 (SW48 cells; Homo sapiens, SW48, 96 h) of 500 nM.
For `CCc1c(N2CCN(C(=O)C3CCOC3)CC2)c(=O)n2nc(C3=CCCCO3)nc2n1CC(=O)Nc1ccc(C(F)(F)F)cc1` (stereo not drawn) [Example 61, 2-(2-(3,4-dihydro-2H-pyran-6-yl)-5-ethyl-7-oxo-6-(4-(tetrahydrofuran-3-carbonyl)piperazin-1-yl)-[1,2,4]triazolo[1,5-a]pyrimidin-4(7H)-yl)-N-(4-(trifluoromethyl)phenyl)acetamide], the IC50 [1] was 400 nM, the GI50 (DLD1-WRN-KO cells) was over 10000 nM and the GI50 (SW48 cells) was 4000 nM.
`CCc1c(N2CCN(C(=O)c3ccnc(C)c3O)CC2)c(=O)n2nc(C3=CCOCC3)nc2n1CC(=O)Nc1ccc(C(F)(F)F)cc1C` [Example 47, 2-(2-(3,6-dihydro-2H-pyran-4-yl)-5-ethyl-6-(4-(3-hydroxy-2-methylisonicotinoyl)piperazin-1-yl)-7-oxo-[1,2,4]triazolo[1,5-a]pyrimidin-4(7H)-yl)-N-(2-methyl-4-(trifluoromethyl)phenyl)acetamide] was tested, and the IC50 [1] was 90 nM, the GI50 (DLD1-WRN-KO cells) was over 10000 nM and the GI50 (SW48 cells; Homo sapiens, SW48, 96 h) was 900 nM.
